Square brackets hold non-standard residues; d marks the D form. Peptide text beside a SMILES is read from it. * marks the point of attachment. Asp(3,3-(CH2)4) = N[C@H](C(=O)O)C1(C(=O)O)CCCC1; Dibenzylacetyl = O=C(C(Cc1ccccc1)Cc1ccccc1)*; Leu(γ-Me)ol = CC(C)(C)C[C@@H](CO)N*; Tle = CC(C)(C)[C@H](N)C(=O)O; NMeV = CN[C@H](C(=O)O)C(C)C; Pyrrolidide = C1CCN(*)C1

One experiment deals with HSV type 2. As to conditions: cell culture; read-out: EC50, replication of HSV type 2; cited from earlier work.
The subject of another experiment is HSV-1. As to conditions: murine ocular model; cited from earlier work.
For a further experiment, the system named is HSV type 1. The note with it: cited from earlier work.
For experiment [1], the target named is T1, mouse Y177F-R2 with recombinant mouse R1 (Mus musculus, UniProt P07742+P11157, Y177F).
T1 sequence (P07742 1-792): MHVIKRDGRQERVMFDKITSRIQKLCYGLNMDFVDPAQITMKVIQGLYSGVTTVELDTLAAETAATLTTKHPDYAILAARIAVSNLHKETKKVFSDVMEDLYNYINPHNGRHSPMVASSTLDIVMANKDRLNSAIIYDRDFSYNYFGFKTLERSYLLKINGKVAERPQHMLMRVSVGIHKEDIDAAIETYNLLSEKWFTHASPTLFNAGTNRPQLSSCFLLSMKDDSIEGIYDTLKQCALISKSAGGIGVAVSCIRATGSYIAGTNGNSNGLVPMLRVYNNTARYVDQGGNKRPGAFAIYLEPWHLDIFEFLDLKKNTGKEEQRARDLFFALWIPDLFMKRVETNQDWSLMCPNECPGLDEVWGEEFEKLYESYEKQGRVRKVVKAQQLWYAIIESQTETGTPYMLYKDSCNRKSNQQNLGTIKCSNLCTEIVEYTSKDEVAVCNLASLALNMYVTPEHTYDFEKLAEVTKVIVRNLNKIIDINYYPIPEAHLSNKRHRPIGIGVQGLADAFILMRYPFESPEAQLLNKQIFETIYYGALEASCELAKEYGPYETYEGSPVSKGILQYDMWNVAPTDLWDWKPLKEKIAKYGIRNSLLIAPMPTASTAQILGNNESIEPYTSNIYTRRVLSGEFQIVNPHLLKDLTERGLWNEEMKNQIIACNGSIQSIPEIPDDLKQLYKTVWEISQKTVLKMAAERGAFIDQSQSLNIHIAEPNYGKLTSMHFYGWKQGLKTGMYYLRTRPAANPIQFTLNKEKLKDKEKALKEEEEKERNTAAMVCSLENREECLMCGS
T1 sequence (P11157 1-390 Y177F): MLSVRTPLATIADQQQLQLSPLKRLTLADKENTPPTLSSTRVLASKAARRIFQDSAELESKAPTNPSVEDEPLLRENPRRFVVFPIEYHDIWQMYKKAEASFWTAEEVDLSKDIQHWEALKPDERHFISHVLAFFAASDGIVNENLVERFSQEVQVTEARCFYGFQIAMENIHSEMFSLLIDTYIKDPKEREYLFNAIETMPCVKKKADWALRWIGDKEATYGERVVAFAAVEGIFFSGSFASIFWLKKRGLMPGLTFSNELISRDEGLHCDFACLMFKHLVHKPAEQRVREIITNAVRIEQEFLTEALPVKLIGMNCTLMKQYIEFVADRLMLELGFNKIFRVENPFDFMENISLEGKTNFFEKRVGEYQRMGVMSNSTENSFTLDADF
Kind of experiment: Inhibition of Y177F-R2-dependent RR activity. As to conditions: dATP in presence of relatively high ATP.

The test system of another experiment is HSV. As to conditions: cited from earlier work.

As to `CC(C)[C@@H](C(=O)N[C@H](C(=O)N[C@@H](CC(=O)N1CCCC1)C(=O)N[C@H](C(=O)N[C@H](CO)CC(C)(C)C)C1(C(=O)O)CCCC1)C(C)(C)C)N(C)C(=O)C(Cc1ccccc1)Cc1ccccc1` [BI-LD-1263] (Dibenzylacetyl-[NMeV][Tle]D(Pyrrolidide)[Asp(3,3-(CH2)4)]-{Leu(γ-Me)ol}), the EC50 in the experiment on HSV type 2 is 4 µM; in the experiment with HSV type 1 (cell culture, read-out: EC50, replication of HSV type 1) it was 3 µM. Moreover, the “Severity of HSV-1-induced keratitis” value in the experiment on HSV-1 is recorded as “reduces the severity”. The “Combination with acyclovir in cell culture” value in the experiment with HSV type 1 (HSV types 1 and 2) was “synergistic effect”.

Take `Nc1ncnc2c1ncn2[C@H]1C[C@H](O)[C@@H](COP(=O)(O)OP(=O)(O)OP(=O)(O)O)O1` [dATP]: the IC50 in experiment [1] stood at 20 µM.

For YAGAVVNDL, the “Inhibition of viral growth in cell culture” value in the experiment on HSV is recorded as “did not inhibit viral growth in cell culture”.

Broadly, the EC50 is the concentration that produces a half-maximal response. One may read the IC50 as the point on the concentration scale where inhibition reaches its midpoint.

Source of the values: patent US6030942A, “Peptides peptide analogs peptidomimetics and other small molecules useful for inhibiting the activity of ribonucleotide reductase” (The Trustees of the University of Pennsylvania, priority 1998, dated 2000).
